Entries after “also recorded” stand apart in the source; their conditions may differ.
Assays:
maize callus cultures = conditions: added to nutrient medium for callus initiation; cited from earlier work
Lucerne calli = assay: Callus growth and regeneration ability of lucerne calli; type: cell-based
Description: (§1) In this work, calli and explants of tobacco, sugar cane, maize, lucerne, potato and tomatoes were used. Calli were incubated at Petri dishes containing agarized Murashige-Skoog medium with […] and 1 mg/L 2,4-dichlorophenoxyacetic acid. The cultivation was carried out at temperature 26° C., illumination intensity of 2 cd and the length of daylight of 16 hours. SkQ1 was added to autoclaved and cooled (up to 45° C.) nutrient medium immediately before callus planting. SkQ1 at concentrations of 0, 1.5, 5, 10, 20, 30 and 50 nM was used. Increase of callus green weight, a fraction of calli with shoots and roots and an average number of organs per a morphogenetic callus were taken into account after one month of cultivation.
Lucerne calli were cultivated for 1 month in the presence of different SkQ1 concentrations (0-10 nM). Effect of SkQ1 on callus growth (weight change) and regeneration ability (formation of calli with “green areas”) were assessed.

sugar cane calli [1] = assay: Shoot formation and plant regeneration from sugar cane calli; type: cell-based
Description: as §1
At the same time, development of shoots of calli transferred onto regeneration medium from medium without SkQ1 has been at the very initial stage.
To produce normal plants, sugar cane shoots formed by 10 nM SkQ1 were transferred onto rootage agarized medium containing the same optimum SkQ1 concentration (10 nM). After root formation, the plants were transferred into water medium and then displanted into the ground. Estimation of the plant state was performed at every stage.

tobacco leaf explants = assay: Callus formation (dedifferentiation) and root formation in tobacco leaf explants; type: cell-based; conditions: 0.6 μM SkQ1
Description: Effect of SkQ1 on callus formation (dedifferentiation) in tobacco leaf explants was investigated. Sterile leaf disks of plants Nicotiana tabacum cv Samsun were sliced with approximately 1 cm^2 size. The resulting explants were placed at standard MS medium for callus formation supplemented with phytohormones 0.5 mg/L 6-benzylaminopurine and 1 mg/L naphthylacetic acid. Test Petri plates were also supplemented with 0.6 μM SkQ1. Explants were cultivated in darkness for 5 weeks. During incubation callus was initially formed at wound explant surfaces.

stem tomato explants = assay: Formation of shoots and roots from stem tomato explants; type: cell-based; conditions: 10 nM SkQ1, 10 days
Description: (§2) Effect of SkQ1 on formation shoots and roots from leaf potato explants and stem tomato explants was investigated. Explants were incubated for 10 days in the presence of 10 nM SkQ1 or with no SkQ1.

leaf potato explants = assay: Formation of shoots and roots from leaf potato explants; type: cell-based; conditions: 10 nM SkQ1, 10 days
Description: as §2

sugar cane calli [2] = assay: Survival of sugar cane calli after anaerobic stress; type: cell-based; conditions: 48 hours anoxic, then aerobic medium with 10 nM SkQ1
Description: Effect of SkQ1 on survival of sugar cane calli following anaerobic stress was assessed. For this purpose, sugar cane calli were incubated for 48 hours under anoxic conditions and then were transferred under aerobic conditions at a nutrient medium containing 10 nM SkQ1or no SkQ1 (control).

maize callus = assay: Morphogenetic processes in maize callus; type: cell-based
Description: as §1
Dose-dependent effect of SkQ1 on morphogenetic processes in maize callus was shown. […] Variations in green weight resulted mainly from amount of formed roots.

rice seeds = assay: Germination of rice seeds under water (anaerobic conditions); type: in vivo
Description: Effect of SkQ1 on germination of rice seeds under water (under anaerobic conditions) was studied. SkQ1 was added to water at concentrations of 0, 1, 3, 10, 30 nM.

isolated embryos = conditions: micromolar concentration; wheat; cited from earlier work
maize embryogenic callus = conditions: cited from earlier work
wheat tussue culture = conditions: wheat tissue culture; cited from earlier work
[3] = 1-10 nM SkQ1, one month of cultivation

Molecule: NC1(C(=O)O)CC1 [1-aminocyclopropane-1-carboxylic acid]
- decrease of a number of produced regenerants (maize callus cultures): 68%
- frequency of embryogenic callus formation (maize callus cultures): significant reduction

Molecule: CC1=C(C)C(=O)C(CCCCCCCCCC[P+](c2ccccc2)(c2ccccc2)c2ccccc2)=CC1=O.[Br-] [SkQ1]
- callus growth (weight change) (Lucerne calli; 0-10 nM SkQ1, 1 month): does not affect significantly callus growth
- stimulation of regeneration (formation of calli with green areas) (Lucerne calli; 5 nM SkQ1, 1 month): 2.5-3 fold
- stimulation of regeneration (Lucerne calli; SkQ1 concentrations higher than 5 nM): positive effect eliminates
- onset of formation of shoots from calli (sugar cane calli [1]; 10 nM SkQ1, control calli showed no shoot formation): 19 day of incubation
- rooting of shoots and production of plants (sugar cane calli [1]; 10 nM SkQ1, rootage medium, then water medium and ground): take roots properly and give normal viable plants
- development of formed shoots on agarized regeneration medium (sugar cane calli [1]; 10 nM SkQ1 in regeneration medium): continued to develop normally
- development of shoots on regeneration medium (sugar cane calli [1]; 100 nM SkQ1 in regeneration medium): termination of further development of shoots
- development of shoots on regeneration medium (sugar cane calli [1]; 1000 nM SkQ1 in regeneration medium): destruction of shoots
- shoot formation from undifferentiated tissue of sugar cane (sugar cane calli [1]; FIG. 1): stimulates shoot formation
- viability of shoots (sugar cane calli [1]; formed and further cultivated at 100 nM or 1000 nM SkQ1): nonviable and died
- onset of shoot formation from calli (sugar cane calli [1]; higher SkQ1 concentrations (above 10 nM)): > 31 days
- amount of calli with shoot formation (sugar cane calli [1]; higher SkQ1 concentrations, compared with 10 nM): in lesser amount of calli
- root formation from callus tissues (tobacco leaf explants; darkness, 5 weeks, controls showed no root formation): secondary differentiation of callus tissues with root formation; also recorded: stimulates root formation
- state of differentiated explant tissues on further incubation (tobacco leaf explants; newly formed root tissues did well): necrotized and died
- formation of shoots and roots (stem tomato explants): significantly enhances formation of both shoots and roots
- formation of shoots and roots (leaf potato explants): significantly enhances formation of both shoots and roots
- capability for morphogenesis after anaerobic stress (sugar cane calli [2]): retain capability for morphogenesis
- survival of calli following anaerobic stress (sugar cane calli [2]): markedly higher capability for survival; also recorded: enhances resistance
- callus accretion (green weight) (maize callus; 0-50 nM SkQ1): did not affect essentially callus accretion
- amount of rhizogenic calli (maize callus; 1-10 nM SkQ1): No reliable increase
- average number of roots per callus (maize callus; 1-10 nM SkQ1): increased significantly
- average number of shoots per callus (maize callus; [3]): increase of an average number of shoots per callus
- inoculum fraction that forms shoots (maize callus; [3]): increase of inoculum fraction that forms shoots
- morphogenesis (maize callus; SkQ1 at 20 nM and higher, shoot formation affected more than rhizogenesis): inhibited morphogenesis
- growth oppression (maize callus; high SkQ1 concentrations): No reliable growth oppression
- rhizogenesis on repeated callus cultivation (maize callus; repeated cultivation, same medium composition): even more pronounced amplification of rhizogenesis
- germination of rice seeds under water (rice seeds; 1 nM SkQ1 in water): enhance significantly germination; also recorded: dramatically enhances germination
- germination of rice seeds under water (rice seeds; SkQ1 at concentrations higher than 1 nM (3, 10, 30 nM)): does not reveal such a stimulating effect

Molecule: CC1=CC(=O)CC(C)(C)[C@@]1(O)/C=C/C(C)=C\C(=O)O [abscisic acid]
- embryogenic callus formation (isolated embryos): stimulated embryogenic callus formation

Molecule: C1=CC2C=CC1C2 [norbornadiene]
- frequency of embryogenic callus formation (maize callus cultures): stimulated embryogenic callus formation

Molecule: O=C(O)[C@@H]1CCCN1 [proline]
- number of regenerants per explant (maize embryogenic callus; 20 mM proline, 2.8 without): 7.6
- increase of frequency of embryogenic callus formation and plant regeneration (maize embryogenic callus; 400 mg/L proline in medium): 2-3 fold

Molecule: O=[N+]([O-])[O-].[Ag+] [silver nitrate]
- frequency of embryogenic callus formation (maize callus cultures): stimulated embryogenic callus formation

Molecule: xyloglucan pentasaccharide
- enhancement of morphogenesis (wheat tussue culture): 1.5-2 fold

— patent US8557733B2, “Composition for regenerating and stimulating growth of plants and for adapting plants to different stress factors” (Mitotech S.A., priority 2006, dated 2013)
